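Following 48 hours of exposure in 96-well plates, responses at five concentrations were used to interpolate endpoints linearly. GI50: concentration for 50% inhibition of growth. TGI: total growth inhibition.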
Tests used:
Experiment in all cases: inhibition of tumour cell growth, NCI panel, 48 h
786-0 renal = test system: 786-0 renal
M14 melanoma = test system: M14 melanoma
SF-295 CNS = test system: SF-295 CNS
HS 578T breast = test system: HS 578T breast
HCT-15 colon = test system: HCT-15 colon
SK-MEL-5 melanoma = test system: SK-MEL-5 melanoma
ACHN renal = test system: ACHN renal
SN12C renal = test system: SN12C renal
CCRF-CEM leukemia = test system: CCRF-CEM leukemia
OVCAR-3 ovarian = test system: OVCAR-3 ovarian

SMILES | GI50 (786-0 renal) [µM] | TGI (786-0 renal) [µM] | GI50 (M14 melanoma) [µM] | TGI (M14 melanoma) [µM] | GI50 (SF-295 CNS) [µM] | TGI (SF-295 CNS) [µM] | GI50 (HS 578T breast) [µM] | TGI (HS 578T breast) [µM] | GI50 (HCT-15 colon) [µM] | TGI (HCT-15 colon) [µM] | GI50 (SK-MEL-5 melanoma) [µM] | TGI (SK-MEL-5 melanoma) [µM] | GI50 (ACHN renal) [µM] | TGI (ACHN renal) [µM] | GI50 (SN12C renal) [µM] | TGI (SN12C renal) [µM] | GI50 (CCRF-CEM leukemia) [µM] | TGI (CCRF-CEM leukemia) [µM] | GI50 (OVCAR-3 ovarian) [µM] | TGI (OVCAR-3 ovarian) [µM]
CCc1c(C#N)c(SC(C(N)=O)c2ccccc2)nc(N2CCC(N)CC2)c1C#N (centres undefined) | 14.8 | 28.3 | 16.2 | 30.6 | 14.8 | 28.7 | 14.1 | 41.1 | 53.5 | > 100 | 15.1 | 28.3 | 18.1 | 38.8 | 13.1 | 26 | 15.2 | 36.8 | 14.5 | 28.2
CC(=O)OC1COC(Oc2c(C)c3c4c(c2O)[C@@H](C)CC[C@@H]4[C@@H](C)C[C@H]3C=C(C)C)C(O)C1O (some centres undefined) | 19.2 | 43.2 | 13 | 28.6 | 17.9 | 35.3 | > 100 | > 100 | 17.9 | 37.9 | 16.4 | 34.1 | 18.5 | 36.8 | 20.8 | 46.8 | 11.1 | 35.6 | 16.1 | 31.3
Cc1cn2c(/C=C3/C(=O)Nc4ccc(C(=O)O)cc43)c(C)nc2s1 | > 100 | > 100 | > 100 | > 100 | > 100 | > 100 | > 100 | > 100 | > 100 | > 100 | > 100 | > 100 | > 100 | > 100 | > 100 | > 100 | > 100 | > 100 | > 100 | > 100
COc1cc(OC)c(/C=C/C(=O)c2c(N)cc(OC)cc2OC)c(OC)c1 | 1.49 | > 75 | 0.349 | > 100 | 0.397 | – | 2.42 | > 82 | 0.369 | > 100 | 0.332 | > 100 | 0.722 | > 100 | 0.719 | > 100 | 1.26 | > 100 | 0.28 | 1.1
Nc1c(C(=O)Nc2ccccn2)sc2nc3c(cc12)CCCCCC3 | 0.776 | 6.24 | 0.295 | 3.05 | 0.426 | 5.43 | 0.935 | 12.4 | 0.254 | 11.1 | 0.906 | 7.22 | 2.41 | 10.9 | 3.17 | 37.3 | 0.355 | > 50 | 0.626 | 2.47
CC(C)c1cc(C(C)C)c(Cl)c(Cl)c1O (tested in a mixture with another compound) | – | > 100 | – | > 100 | – | 40.9 | – | 38.5 | – | > 100 | – | 24.3 | – | 57.6 | – | 54.4 | – | > 100 | – | 60.1

From PubChem BioAssay (NCI)
